Test results: ChEMBL document CHEMBL1201862, “PubChem BioAssay data set” (2004)
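Interpolation was linear, between the two tested concentrations surrounding the appropriate level; five concentrations were tested over 48 hours in 96-well plates. Here, GI50 denotes the concentration required for 50% inhibition of growth.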 The source made the active and inactive calls. No stated cut-off is given here; in the data, active = GI50 up to about 1.1 µM and inactive = higher.

Experiments:
Test in all cases: inhibition of tumour cell growth, NCI panel, 48 h
DLD-1 = tested on: DLD-1
KM-20L2 = tested on: KM-20L2
LXFL 529 = tested on: LXFL 529
RXF 631 = tested on: RXF 631
DMS-273 = tested on: DMS-273
XF498 = tested on: XF498
SNB-78 = tested on: SNB-78
HOP-18 = tested on: HOP-18
DMS-114 = tested on: DMS-114

SMILES: COC1C(C)OC(OC2CC(C)(O)Cc3cc4c(c(O)c32)C(=O)c2c(O)cc3c(c2C4=O)OC2OC3(C)C(O)C(N(C)C)C2O)C(OC)C1(C)OC (stereo unspecified)
- GI50 (DLD-1): 0.119 µM (active)
- GI50 (KM-20L2): 0.0299 µM (active)
- GI50 (LXFL 529): 0.0318 µM (active)
- GI50 (RXF 631): 0.155 µM (active)
- GI50 (DMS-273): 0.015 µM (active)
- GI50 (XF498): 0.0165 µM (active)
- GI50 (SNB-78): 0.0282 µM (active)
- GI50 (HOP-18): 0.11 µM (active)

SMILES: O=c1[nH]c(C2CCCCC2)nc2cc(Cl)ccc12
- GI50 (KM-20L2): > 100 µM (inactive)
- GI50 (LXFL 529): > 100 µM (inactive)
- GI50 (DMS-273): > 100 µM (inactive)
- GI50 (DMS-114): > 100 µM (inactive)
- GI50 (SNB-78): > 100 µM (inactive)

SMILES: NN=C1/C(=C\c2ccccc2)CCC/C1=C/c1ccccc1
- GI50 (DLD-1): 31.8 µM (inactive)
- GI50 (KM-20L2): 39.6 µM (inactive)
- GI50 (LXFL 529): 31.4 µM (inactive)
- GI50 (DMS-273): 39.9 µM (inactive)
- GI50 (DMS-114): 26.1 µM (inactive)
- GI50 (SNB-78): 50.5 µM (inactive)
- GI50 (HOP-18): 63.4 µM (inactive)

SMILES: Cc1ccc(NC(=O)CC(=O)n2nc(-c3ccccc3)c(/N=N\c3ccccc3[N+](=O)[O-])c2-c2ccccc2)cc1
- GI50 (DLD-1): 77.8 µM (inactive)
- GI50 (KM-20L2): > 100 µM (inactive)
- GI50 (LXFL 529): 38.6 µM (inactive)
- GI50 (RXF 631): 27.6 µM (inactive)
- GI50 (DMS-273): 44 µM (inactive)
- GI50 (XF498): 37.5 µM (inactive)
- GI50 (DMS-114): 84.5 µM (inactive)
- GI50 (SNB-78): > 100 µM (inactive)
- GI50 (HOP-18): > 100 µM (inactive)

SMILES: C=CCNC(=O)/C=C\C(=O)O
- GI50 (DLD-1): > 100 µM (inactive)
- GI50 (KM-20L2): > 100 µM (inactive)
- GI50 (LXFL 529): > 100 µM (inactive)
- GI50 (RXF 631): > 100 µM (inactive)
- GI50 (DMS-273): > 100 µM (inactive)
- GI50 (DMS-114): > 100 µM (inactive)
- GI50 (SNB-78): > 100 µM (inactive)
- GI50 (HOP-18): > 100 µM (inactive)

SMILES: O=C(O)Cc1cc(=O)oc2cc(O)c(Cl)cc12
- GI50 (DLD-1): > 100 µM (inactive)
- GI50 (KM-20L2): > 100 µM (inactive)
- GI50 (LXFL 529): > 100 µM (inactive)
- GI50 (DMS-273): > 100 µM (inactive)
- GI50 (XF498): > 100 µM (inactive)
- GI50 (DMS-114): > 100 µM (inactive)
- GI50 (HOP-18): > 100 µM (inactive)

SMILES: O=S(=O)(NCn1ccc2ccccc21)c1ccccc1
- GI50 (DLD-1): 40.9 µM (inactive)
- GI50 (KM-20L2): > 100 µM (inactive)
- GI50 (LXFL 529): > 100 µM (inactive)
- GI50 (RXF 631): > 100 µM (inactive)
- GI50 (DMS-273): > 64.3 µM (inactive)
- GI50 (XF498): > 100 µM (inactive)
- GI50 (SNB-78): > 53.1 µM (inactive)
- GI50 (HOP-18): > 100 µM (inactive)

SMILES: COP(=O)(OC)/C(=N\Nc1ccc([N+](=O)[O-])cc1)NCc1ccccc1
- GI50 (DLD-1): 33.3 µM (inactive)
- GI50 (KM-20L2): 30.1 µM (inactive)
- GI50 (LXFL 529): 31.8 µM (inactive)
- GI50 (DMS-273): 36.3 µM (inactive)
- GI50 (DMS-114): 21.4 µM (inactive)

SMILES: CC1(O)CCn2c(=O)c3cc4ccccc4cc3c(=O)n2C1O (stereo unspecified)
- GI50 (DLD-1): > 100 µM (inactive)
- GI50 (KM-20L2): > 100 µM (inactive)
- GI50 (LXFL 529): > 100 µM (inactive)
- GI50 (RXF 631): > 100 µM (inactive)
- GI50 (DMS-273): > 100 µM (inactive)
- GI50 (DMS-114): > 100 µM (inactive)
- GI50 (HOP-18): 26.8 µM (inactive)

SMILES: COc1c(NC(C)=O)cc(C)cc1NC(C)=O
- GI50 (DLD-1): > 100 µM (inactive)
- GI50 (DMS-273): > 100 µM (inactive)
- GI50 (XF498): > 100 µM (inactive)
- GI50 (DMS-114): > 100 µM (inactive)
- GI50 (SNB-78): > 100 µM (inactive)

SMILES: C[C@H]1COC2(c3ccccc3)CCC(=O)N12 (stereo partly specified)
- GI50 (DLD-1): > 100 µM (inactive)
- GI50 (KM-20L2): > 100 µM (inactive)
- GI50 (DMS-273): > 100 µM (inactive)
- GI50 (XF498): > 100 µM (inactive)
- GI50 (DMS-114): > 100 µM (inactive)
- GI50 (SNB-78): > 100 µM (inactive)
- GI50 (HOP-18): > 100 µM (inactive)

SMILES: O=C(/C=C/c1c(O)ccc2ccccc12)c1ccc2ccccc2c1
- GI50 (DLD-1): > 100 µM (inactive)
- GI50 (KM-20L2): > 100 µM (inactive)
- GI50 (DMS-273): > 100 µM (inactive)
- GI50 (DMS-114): > 100 µM (inactive)
- GI50 (SNB-78): > 100 µM (inactive)

SMILES: CC(=O)NC(CCCNC(=O)OCc1ccccc1)C(=O)O (stereo unspecified)
- GI50 (DLD-1): > 100 µM (inactive)
- GI50 (KM-20L2): > 100 µM (inactive)
- GI50 (LXFL 529): 47.5 µM (inactive)
- GI50 (RXF 631): > 100 µM (inactive)
- GI50 (DMS-273): > 100 µM (inactive)
- GI50 (XF498): > 100 µM (inactive)
- GI50 (DMS-114): > 100 µM (inactive)
- GI50 (SNB-78): 49.5 µM (inactive)

SMILES: Cc1c(N2CCN(C)CC2)nc2ccc(Cl)cc2c1-c1ccccc1
- GI50 (KM-20L2): 15.7 µM (inactive)
- GI50 (LXFL 529): 16.9 µM (inactive)
- GI50 (DMS-273): 17 µM (inactive)
- GI50 (DMS-114): 15.8 µM (inactive)
- GI50 (SNB-78): 16.3 µM (inactive)

SMILES: CC(=O)Nc1ccccc1-c1nc2ccccc2nc1C
- GI50 (DLD-1): > 100 µM (inactive)
- GI50 (KM-20L2): > 100 µM (inactive)
- GI50 (LXFL 529): > 100 µM (inactive)
- GI50 (RXF 631): > 100 µM (inactive)
- GI50 (DMS-114): > 100 µM (inactive)
- GI50 (SNB-78): > 100 µM (inactive)
- GI50 (HOP-18): > 100 µM (inactive)

SMILES: COCOc1ccc(Cn2c(=O)n(C)c(=O)c3c2ncn3C)cc1[N+](=O)[O-]
- GI50 (DLD-1): > 100 µM (inactive)
- GI50 (KM-20L2): > 100 µM (inactive)
- GI50 (LXFL 529): 79.8 µM (inactive)
- GI50 (DMS-273): > 100 µM (inactive)
- GI50 (DMS-114): 44.6 µM (inactive)
- GI50 (SNB-78): > 100 µM (inactive)

SMILES: COc1ccc(/C=C2\CCCC(C(NO)c3ccc(OC)cc3)C2=NO)cc1 (stereo unspecified)
- GI50 (DLD-1): 46.7 µM (inactive)
- GI50 (KM-20L2): 61.9 µM (inactive)
- GI50 (LXFL 529): 28.1 µM (inactive)
- GI50 (RXF 631): 40.5 µM (inactive)
- GI50 (DMS-273): 45.9 µM (inactive)
- GI50 (DMS-114): 28.4 µM (inactive)
- GI50 (SNB-78): 45.7 µM (inactive)
- GI50 (HOP-18): 32.4 µM (inactive)

SMILES: CC(=O)/C=C\C1CC2C=CC1C2 (stereo unspecified)
- GI50 (DLD-1): 15.1 µM (inactive)
- GI50 (KM-20L2): 40.2 µM (inactive)
- GI50 (LXFL 529): 29.4 µM (inactive)
- GI50 (RXF 631): 51.5 µM (inactive)
- GI50 (DMS-273): 41 µM (inactive)
- GI50 (DMS-114): 21.5 µM (inactive)
- GI50 (SNB-78): 22.1 µM (inactive)
- GI50 (HOP-18): 96.6 µM (inactive)

SMILES: CCOC(=O)CCC1(C(=O)OCC)CCCC1=O (stereo unspecified)
- GI50 (DLD-1): > 100 µM (inactive)
- GI50 (KM-20L2): > 100 µM (inactive)
- GI50 (LXFL 529): > 100 µM (inactive)
- GI50 (RXF 631): > 100 µM (inactive)
- GI50 (DMS-273): 43.2 µM (inactive)
- GI50 (XF498): > 100 µM (inactive)
- GI50 (DMS-114): > 100 µM (inactive)
- GI50 (SNB-78): > 100 µM (inactive)
- GI50 (HOP-18): > 100 µM (inactive)

SMILES: Cc1ccc2nc3cc(C)c(=O)cc-3sc2c1
- GI50 (DLD-1): > 100 µM (inactive)
- GI50 (KM-20L2): > 100 µM (inactive)
- GI50 (LXFL 529): 78.5 µM (inactive)
- GI50 (DMS-273): > 100 µM (inactive)
- GI50 (DMS-114): 40.7 µM (inactive)
- GI50 (SNB-78): > 100 µM (inactive)
- GI50 (HOP-18): > 100 µM (inactive)

SMILES: O=C1NC2C(=O)N(Cc3ccccc3)C(=O)C2N1 (stereo unspecified)
- GI50 (DLD-1): > 100 µM (inactive)
- GI50 (KM-20L2): > 100 µM (inactive)
- GI50 (LXFL 529): > 100 µM (inactive)
- GI50 (XF498): > 100 µM (inactive)
- GI50 (DMS-114): > 100 µM (inactive)
- GI50 (SNB-78): > 100 µM (inactive)

SMILES: O=C(CSc1nnc(-c2ccc(/N=C\c3ccc(Cl)cc3)cc2)o1)Nc1ccccc1
- GI50 (KM-20L2): > 100 µM (inactive)
- GI50 (LXFL 529): 50.6 µM (inactive)
- GI50 (DMS-273): 27.3 µM (inactive)
- GI50 (XF498): > 100 µM (inactive)
- GI50 (DMS-114): 58.1 µM (inactive)
- GI50 (SNB-78): 63.1 µM (inactive)
- GI50 (HOP-18): 54.2 µM (inactive)

SMILES: CCc1nc2ccccc2c(=O)n1/N=C(\N=N\c1ccc(Cl)cc1)c1ccccc1
- GI50 (DLD-1): 37.2 µM (inactive)
- GI50 (KM-20L2): 14 µM (inactive)
- GI50 (LXFL 529): 19.1 µM (inactive)
- GI50 (DMS-273): 20.7 µM (inactive)
- GI50 (DMS-114): 18.7 µM (inactive)
- GI50 (SNB-78): 27.1 µM (inactive)
- GI50 (HOP-18): 12.5 µM (inactive)

SMILES: CC1CC(C)C2OC2(C)C[C@H](C)C(=O)NC(C)C(=O)N(C)[C@H](Cc2c(Br)[nH]c3ccccc23)C(=O)N[C@@H](c2ccc(O)cc2)CC(=O)O1 (stereo partly specified)
- GI50 (DLD-1): 3.37 µM (inactive)
- GI50 (KM-20L2): 0.15 µM (active)
- GI50 (LXFL 529): 0.221 µM (active)
- GI50 (RXF 631): 0.76 µM (active)
- GI50 (DMS-273): 0.0241 µM (active)
- GI50 (XF498): 0.838 µM (active)
- GI50 (DMS-114): 0.0348 µM (active)
- GI50 (SNB-78): 0.309 µM (active)

SMILES: CCC[S+]([O-])c1nc(COC(=O)NC)c(COC(=O)NC)n1C (stereo unspecified)
- GI50 (DLD-1): > 100 µM (inactive)
- GI50 (KM-20L2): > 100 µM (inactive)
- GI50 (LXFL 529): > 100 µM (inactive)
- GI50 (RXF 631): > 100 µM (inactive)
- GI50 (DMS-273): > 100 µM (inactive)
- GI50 (XF498): > 100 µM (inactive)
- GI50 (DMS-114): > 100 µM (inactive)
- GI50 (SNB-78): > 100 µM (inactive)
- GI50 (HOP-18): > 100 µM (inactive)
